Measured values from patent publication US20240090503A1, “FUNGICIDAL OXADIAZOLES AND THEIR MIXTURES” (FMC CORPORATION, priority 2020, published 2024).
Marks after values point to notes of the source that are not given here.

Legend:
Type in all cases: in vivo
[1] = system: Zymoseptoria tritici (the causal agent of wheat leaf blotch); test: Test B: preventive spray on wheat seedlings, wheat leaf blotch, visual disease rating; settings: wheat seedlings; for pest or weed control at 250 µg/mL: Zymoseptoria tritici, 456 h
Summary of the method: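 This is a preventive test: spray application preceded Zymoseptoria tritici spore inoculation by one day. Test suspensions were in acetone/water with 250 ppm PEG400 surfactant, at the listed ppm rate. After 48 h saturated humidity at 24° C and 17 days at 20° C, visual ratings scored control from 0 to 100%.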

[2] = system: Phakopsora pachyrhizi (the causal agent of Asian soybean rust); test: Test A: preventive spray on soybean seedlings, Asian soybean rust, visual disease rating; settings: soybean seedlings
Summary of the method: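 Preventive test: soybean seedlings received a run-off spray of compound suspended at the set ppm in 50/50 acetone/water plus 250 ppm PEG400, and one day later a P. pachyrhizi spore inoculum. Visual scoring (0 none to 100 full disease control) followed 24 h saturated incubation and 8 days' growth chamber, both at 22° C.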

[3] = system: Puccinia recondita f. sp. tritici (the causal agent of wheat leaf rust); test: Test C: preventive spray on wheat seedlings, wheat leaf rust, visual disease rating; settings: wheat seedlings
Summary of the method: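 Wheat seedlings sprayed to run-off with compound in acetone/water (50/50) with 250 ppm PEG400, then inoculated with spores the following day. After 24 h saturated humidity at 20° C. and 6 days in growth chamber at 20° C., disease rated visually as % control relative to untreated controls.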

[4] = test suspension 100 ppm (** next to rating)
[5] = test suspension 10 ppm, 100 = 100% disease control, 0 = no control
[6] = Phakopsora pachyrhizi, 216 h, test suspension 50 ppm
[7] = Puccinia recondita, 168 h, test suspension 50 ppm

FC(F)(F)c1nc(-c2ccc(Cn3cc(Br)c(-c4ccccc4Cl)n3)cc2)no1 [compound 146]
Test B disease control rating ([1]; test suspension 250 ppm): 0%
Test A disease control rating ([2]; test suspension 250 ppm): 100%
Test C disease control rating ([3]; test suspension 250 ppm): 0%

FC(F)(F)c1nc(-c2ccc(CN3CCC4(CC3)OCCO4)cc2)no1 [compound 149]
Test B disease control rating ([1]; test suspension 260 ppm): 72%
Test A disease control rating ([2]; test suspension 260 ppm): 100%
Test C disease control rating ([3]; test suspension 260 ppm): 100%

O=C1CCN(Cc2ccc(-c3noc(C(F)(F)F)n3)cc2)CC1 [compound 150]
Test B disease control rating ([1]; test suspension 255 ppm): 19%
Test A disease control rating ([2]; test suspension 255 ppm): 100%
Test C disease control rating ([3]; test suspension 255 ppm): 100%

FC(F)(F)c1ccn(Cc2ccc(-c3noc(C(F)(F)F)n3)cc2)n1 [compound 153]
Test B disease control rating ([1]; test suspension 250 ppm): 0%
Test A disease control rating ([2]; test suspension 250 ppm): 100%
Test C disease control rating ([3]; test suspension 250 ppm): 89%

O=c1sc2ccccc2n1Cc1ccc(-c2noc(C(F)(F)F)n2)cc1 [compound 156]
Test B disease control rating ([1]; test suspension 255 ppm): 86%
Test A disease control rating ([2]; test suspension 255 ppm): 100%
Test C disease control rating ([3]; test suspension 255 ppm): 100%

O=C1N(Cc2ccc(-c3noc(C(F)(F)F)n3)cc2)c2ccccc2C1(F)F [compound 161]
Test B disease control rating ([1]; test suspension 265 ppm): 33%
Test A disease control rating ([2]; test suspension 265 ppm): 100%
Test C disease control rating ([3]; test suspension 265 ppm): 99%

FC(F)(F)c1nc(-c2ccc(Cn3cccn3)cc2)no1 [compound 162]
Test B disease control rating ([1]; test suspension 250 ppm): 0%
Test A disease control rating ([2]; test suspension 250 ppm): 100%
Test C disease control rating ([3]; test suspension 250 ppm): 100%

FC(F)(F)c1nc(-c2ccc(Cn3cc(Br)cn3)cc2)no1 [compound 163]
Test B disease control rating ([1]; test suspension 250 ppm): 0%
Test A disease control rating ([2]; test suspension 250 ppm): 100%
Test C disease control rating ([3]; test suspension 250 ppm): 100%

NC(=O)C1=NOC(Cc2ccc(-c3noc(C(F)(F)F)n3)cc2)C1 (stereo not drawn) [compound 164]
Test B disease control rating ([1]; test suspension 250 ppm): 88%
Test A disease control rating ([2]; test suspension 250 ppm): 100%
Test C disease control rating ([3]; test suspension 250 ppm): 100%

CNC(=O)C1=NOC(Cc2ccc(-c3noc(C(F)(F)F)n3)cc2)C1 (stereo not drawn) [compound 165]
Test B disease control rating ([1]; test suspension 260 ppm): 95%
Test A disease control rating ([2]; test suspension 260 ppm): 100%
Test C disease control rating ([3]; test suspension 260 ppm): 100%

C=CCOC(=O)c1cnn(Cc2ccc(-c3noc(C(F)(F)F)n3)cc2)c1 [compound 166]
Test B disease control rating [1, 4]: 90** %
Test A disease control rating [2, 5]: 100%
Test C disease control rating ([3]; test suspension 10 ppm): 100%

C=C(C)COC(=O)c1cnn(Cc2ccc(-c3noc(C(F)(F)F)n3)cc2)c1 [compound 170]
Test B disease control rating [1, 4]: 97** %
Test A disease control rating [2, 5]: 100%
Test C disease control rating ([3]; test suspension 10 ppm): 100%

CC(C)COC(=O)c1cnn(Cc2ccc(-c3noc(C(F)(F)F)n3)cc2)c1 [compound 171]
Test B disease control rating [1, 4]: 37** %
Test A disease control rating [2, 5]: 100%
Test C disease control rating ([3]; test suspension 10 ppm): 100%

CCNC(=O)C1=NOC(Cc2ccc(-c3noc(C(F)(F)F)n3)cc2)C1 (stereo not drawn) [compound 175]
Test B disease control rating ([1]; test suspension 255 ppm): 95%
Test A disease control rating ([2]; test suspension 255 ppm): 100%
Test C disease control rating ([3]; test suspension 255 ppm): 100%

C#CCNC(=O)C1=NOC(Cc2ccc(-c3noc(C(F)(F)F)n3)cc2)C1 (stereo not drawn) [compound 176]
Test B disease control rating ([1]; test suspension 250 ppm): 92%
Test A disease control rating ([2]; test suspension 250 ppm): 100%
Test C disease control rating ([3]; test suspension 250 ppm): 100%

O=C(C1=NOC(Cc2ccc(-c3noc(C(F)(F)F)n3)cc2)C1)N1CCC1 (stereo not drawn) [compound 177]
Test B disease control rating ([1]; test suspension 250 ppm): 97%
Test A disease control rating ([2]; test suspension 250 ppm): 100%
Test C disease control rating ([3]; test suspension 250 ppm): 100%

FC(F)(F)c1nc(-c2ccc(CNC3CC3)s2)no1 [compound 191]
Test B disease control rating ([1]; test suspension 250 ppm): 96* %
Test A disease control rating ([2]; test suspension 50 ppm): 100%
Test C disease control rating ([3]; test suspension 50 ppm): 100%

CCOC(=O)c1cnn(Cc2csc(-c3noc(C(F)(F)F)n3)c2)c1 [compound 193]
Test B disease control rating ([1]; test suspension 250 ppm): 28* %
Test A disease control rating ([2]; test suspension 50 ppm): 100%
Test C disease control rating ([3]; test suspension 50 ppm): 100%

CCOC(=O)c1csc(Cc2ccc(-c3noc(C(F)(F)F)n3)s2)n1 [compound 201]
Test B disease control rating ([1]; test suspension 250 ppm): 28%
Test A disease control rating ([2]; test suspension 250 ppm): 100%
Test C disease control rating ([3]; test suspension 250 ppm): 100%

O=C(NCC1CC1)c1csc(Cc2ccc(-c3noc(C(F)(F)F)n3)s2)n1 [compound 202]
Test B disease control rating ([1]; test suspension 250 ppm): 83%
Test A disease control rating ([2]; test suspension 250 ppm): 100%
Test C disease control rating ([3]; test suspension 250 ppm): 100%

CCOC(=O)c1cnn(Cc2ccc(-c3noc(C(F)(F)F)n3)o2)c1 [compound 210]
Test B disease control rating ([1]; test suspension 250 ppm): 63* %
Test A disease control rating ([2]; test suspension 50 ppm): 100%
Test C disease control rating ([3]; test suspension 50 ppm): 99%

CCCOC(=O)c1cnn(Cc2ccc(-c3noc(C(F)(F)F)n3)o2)c1 [compound 211]
Test B disease control rating ([1]; test suspension 250 ppm): 70* %
Test A disease control rating ([2]; test suspension 50 ppm): 100%
Test C disease control rating ([3]; test suspension 50 ppm): 100%

O=C(NCC(F)(F)F)c1cnn(COc2ccc(-c3noc(C(F)(F)F)n3)cc2)c1 [compound 212]
Test B disease control rating ([1]; test suspension 250 ppm): 79* %
Test A disease control rating [2, 5]: 100%
Test C disease control rating ([3]; test suspension 10 ppm): 100%

COCCNC(=O)c1cnn(COc2ccc(-c3noc(C(F)(F)F)n3)cc2)c1 [compound 213]
Test B disease control rating ([1]; test suspension 250 ppm): 82* %
Test A disease control rating [2, 5]: 100%
Test C disease control rating ([3]; test suspension 10 ppm): 74%

N#CCNC(=O)c1cnn(COc2ccc(-c3noc(C(F)(F)F)n3)cc2)c1 [compound 214]
Test B disease control rating ([1]; test suspension 250 ppm): 73* %
Test A disease control rating [2, 5]: 100%
Test C disease control rating ([3]; test suspension 10 ppm): 74%

O=C(NCCn1cccn1)c1cnn(COc2ccc(-c3noc(C(F)(F)F)n3)cc2)c1 [compound 215]
Test B disease control rating ([1]; test suspension 250 ppm): 90* %
Test A disease control rating [2, 5]: 99%
Test C disease control rating ([3]; test suspension 10 ppm): 74%

O=C(OCC1CC1)c1cnn(COc2ccc(-c3noc(C(F)(F)F)n3)cc2)c1 [compound 216]
Test B disease control rating ([1]; test suspension 250 ppm): 9* %
Test A disease control rating [2, 5]: 100%
Test C disease control rating ([3]; test suspension 10 ppm): 74%

CCCOC(=O)c1cnn(COc2ccc(-c3noc(C(F)(F)F)n3)cc2)c1 [compound 217]
Test B disease control rating ([1]; test suspension 250 ppm): 35* %
Test A disease control rating [2, 5]: 100%
Test C disease control rating ([3]; test suspension 10 ppm): 86%

CN(C)C(=O)C1=NOC(CCOc2cccc(-c3noc(C(F)(F)F)n3)c2)C1 (stereo not drawn) [compound 224]
pest or weed control at 250 µg/mL ([1]; test suspension 250 ppm): 81%
pest or weed control at 50 µg/mL [2, 6]: 100%
pest or weed control at 50 µg/mL [3, 7]: 89%

O=C(NCC1CC1(F)F)c1coc(Cc2ccc(-c3noc(C(F)(F)F)n3)cc2)n1 (stereo not drawn) [compound 226]
Test B disease control rating ([1]; test suspension 250 ppm): 94* %
Test A disease control rating [2, 5]: 100%
Test C disease control rating ([3]; test suspension 10 ppm): 100%

O=C(c1coc(Cc2ccc(-c3noc(C(F)(F)F)n3)cc2)n1)N1CCCC1 [compound 227]
Test B disease control rating ([1]; test suspension 250 ppm): 99* %
Test A disease control rating [2, 5]: 100%
Test C disease control rating ([3]; test suspension 10 ppm): 97%

O=C(c1coc(Cc2ccc(-c3noc(C(F)(F)F)n3)cc2)n1)N1CCC(F)(F)CC1 [compound 228]
Test B disease control rating ([1]; test suspension 250 ppm): 99* %
Test A disease control rating [2, 5]: 100%
Test C disease control rating ([3]; test suspension 10 ppm): 79%

CC(C)(C#N)NC(=O)c1coc(Cc2ccc(-c3noc(C(F)(F)F)n3)cc2)n1 [compound 230]
Test B disease control rating ([1]; test suspension 250 ppm): 99* %
Test A disease control rating [2, 5]: 100%
Test C disease control rating ([3]; test suspension 10 ppm): 99%

N#CC1(NC(=O)c2coc(Cc3ccc(-c4noc(C(F)(F)F)n4)cc3)n2)CC1 [compound 231]
Test B disease control rating ([1]; test suspension 250 ppm): 95* %
Test A disease control rating [2, 5]: 100%
Test C disease control rating ([3]; test suspension 10 ppm): 97%

O=c1cc(-c2noc(C(F)(F)F)n2)ccn1Cc1ccccc1F [compound 232]
pest or weed control at 250 µg/mL ([1]; test suspension 250 ppm): 68%
pest or weed control at 250 µg/mL ([2]; Phakopsora pachyrhizi, 216 h, test suspension 250 ppm): 100%
pest or weed control at 250 µg/mL ([3]; Puccinia recondita, 168 h, test suspension 250 ppm): 100%

COc1cccc(Cn2ccc(-c3noc(C(F)(F)F)n3)cc2=O)c1 [compound 233]
pest or weed control at 250 µg/mL ([1]; test suspension 250 ppm): 90%
pest or weed control at 50 µg/mL [2, 6]: 97%
pest or weed control at 50 µg/mL [3, 7]: 100%
